Experimental data published in publication PMC10975719, “Tobramycin Reduces Pulmonary Toxicity of Polymyxin B via Inhibiting the Megalin-Mediated Drug Uptake in the Human Lung Epithelial Cells” (Pharmaceutics, 2024).
Read-outs that look alike come from different tables or passages of the source. Blank lines part the entries; values can stand above or below the molecule they belong to. Bridge positions count the residues as written; N and C are the ends. Square brackets hold non-standard residues; d marks the D form. Peptide text beside a SMILES is read from it. * marks the point of attachment. X1 = CC[C@H](C)CCCCC(=O)*; Dab = NCC[C@H](N)C(=O)O

Assays:
megalin = target: T1, megalin (Homo sapiens, UniProt P98164); test: Megalin substrate FITC-BSA uptake by Calu-3 cells, confocal microscopy; assay type: cell-based; conditions: 4 h; for ratio of FITC-BSA to nucleus integrated density: 100 mg/L FITC-BSA, Calu-3 cells, FITC-BSA only 0.58 ± 0.04; for effect on cellular uptake of FITC-BSA: polymyxin B 30 and 60 mg/L, tobramycin 70 and 140 mg/L
T1 construct: endogenous in cells; host or cells: Calu-3 (human lung epithelial cells)
Description: As albumin is an endogenous substrate of megalin [30], cellular distribution of fluorescein-labeled BSA (FITC-BSA) was evaluated in the presence of polymyxin B and tobramycin to investigate the functional activity of megalin in Calu-3 cells. Calu-3 cells were grown in an eight-well chamber slide at a density of 2 × 10^5 cell/mL in 10% FBS supplemented DMEM/F-12 cell culture media. After overnight incubation at 37 °C and 5% CO2, cells were washed to remove old media and were incubated for 4 h with 100 μg/mL of FITC-BSA in fresh cell culture media and in the presence and absence of polymyxin B (30 and 60 mg/L) and tobramycin (70 and 140 mg/L). After 4 h, cells were washed and stained with Hoechst for nucleus staining and cell mask deep red for cell membrane staining. Cells were finally washed and covered with Prolong gold antifade mounting reagent and mounted on a 60× oil immersion objective for imaging. Images were taken with a Nikon Eclipse T1 confocal microscope. Images were processed with Nikon (NIS-Elements) and Image J (version 1.54) software.

[1] = system: human lung epithelial Calu-3 cells; assay type: cell-based
Description: Assessment of cytotoxicity was performed using aqueous solutions of polymyxin B, tobramycin, and the combination of both in human lung epithelial Calu-3 cells. This cytotoxicity assessment aimed to determine safe drug concentrations for the transport and imaging experiments. Cells were seeded in 96-well flat bottom plate (Corning, NY, USA) at a density of 2 × 10^5 cells/mL. A wide concentration range was chosen, considering a molar ratio of 1:5 polymyxin B to tobramycin based on the literature. Lactate dehydrogenase (LDH) assay was used for the measurement of cytotoxicity. Vehicle-treated cells were considered as the negative control, while 10× lysis buffer treated cells were employed as the positive control. For the imaging study, Calu-3 cells were cultured in a 35 mm glass bottom culture dish at a density of 2 × 10^5 cells/mL and were treated with a vehicle, tobramycin 700 mg/L, polymyxin B 300 mg/L, and the combination. After treatment, cells were washed with PBS and stained with PI (100 ng/mL) and DAPI (1 mg/L) for 30 min in dark. Cells were washed again with PBS and mounted for imaging with Calu-3 cell culture media.

Calu-3 cell monolayer [2] = test: Transport study in air liquid interface Calu-3 cell monolayer; conditions: LC-MS/MS; for transport rate, apparent permeability coefficient (Papp), in combination compared to drug alone / amount remaining in the apical chamber, combination compared to drug alone / transport from apical chamber to basal medium: Calu-3 ALI monolayer; for transport rate, apparent permeability coefficient (Papp), in combination compared to drug alone: apical to basal, polymyxin B 30 mg/L + tobramycin 70 mg/L vs each alone, p < 0.0001; for transport rate, apparent permeability coefficient (Papp), in combination compared to drug alone / accumulation in Calu-3 cell monolayer / transport from apical chamber to basal medium: HBSS; for amount remaining in the apical chamber, combination compared to drug alone: after 4 h of transport study; for accumulation in Calu-3 cell monolayer: at 4 h; for transport from apical chamber to basal medium: 4 h
Description: Human lung epithelial Calu-3 cells were grown in a 6.5 mm cell culture insert in a trans-well plate for 3 days using both apical and basal media. The apical media was withdrawn to let the cells grow in an air liquid interface (ALI). The system was maintained for 14 days, with the basal media changed every other day. The culture medium was DMEM/F-12 supplemented with 10% (v/v, FBS) and 1% (v/v) nonessential amino acid, and penicillin and streptomycin (100 units/mL of penicillin and 100 mg/L of streptomycin). After 14 days of differentiation at the ALI condition, the trans-epithelial electrical resistance (TEER) value was measured to investigate the integrity of the formed Calu-3 monolayer.
The transport study was conducted in the Calu-3 cell monolayer according to our previously published ALI culture protocol. TEER values were measured before and after the transport study to ensure the cell monolayer integrity was maintained. As the transport process was done in HBSS buffer, the drug solution was also prepared in HBSS buffer. The cell monolayer inserts were incubated with HBSS buffer for 30 min to equilibrate. The following drug solutions were used in the transport process: polymyxin B 30 mg/L, tobramycin 70 mg/L, and the combination of polymyxin B 30 mg/L and tobramycin 70 mg/L. An aliquot of 200 µL of drug solution was added to the apical chamber and 600 µL of HBSS buffer was added to the basal chamber. The samples were collected from the basal chamber every hour for a total of 4 h and the basal chamber was refilled with fresh HBSS buffer. Transported drug from the basal chamber, remaining drug from the apical chamber, and drug accumulated in the cell monolayer were extracted and analyzed using a reversed-phase LC/MS system. Drug extraction and LC/MS analysis was performed according to a previously published protocol.
For the transported samples, all buffer in the basal chamber was collected to a centrifuge tube. Colistin (1 mg/L) was added as the internal standard, and formic acid (0.1%, v/v) was added to each sample. For drug analysis in the cell, the insert was cut using a sharp scalpel. The cells in the membrane were lysed overnight with RIPA buffer and 200 µL of each sample was used to extract the drug using a protein precipitation method. Acetonitrile (400 µL) was added to the cell lysate and vortexed well to precipitate all the protein. Internal standard and formic acid were added to the samples as previously described, vortexed well, and centrifuged before transferring the supernatant into the injection vial.
The drugs were analyzed using an LC-MS/MS equipped with a C18 column (2.6 μm, 50 mm × 3 mm), a liquid chromatography system (Agilent 1200, Santa Clara, CA, USA), and a triple quadrupole mass spectrometer (Agilent 6460 QQQ, Santa Clara, CA, USA) with an electrospray ionization source. The mobile phase was 0.1% formic acid solution in water (90%) and 0.1% formic acid solution in acetonitrile (10%) with a flow rate of 0.6 mL/min. A gradient elution procedure was used, and each component was measured via multiple reaction monitoring (MRM) in the positive ionization mode (Table 1).

Calu-3 cell monolayer [3] = test: Transport in Calu-3 cell monolayer in presence of megalin inhibitor sodium maleate; assay type: in vitro ADME, human; conditions: for cellular accumulation / remaining in the apical chamber / intracellular accumulation normalized to protein: 2 h; for intracellular accumulation normalized to protein: Calu-3 monolayer lysate (RIPA)
Description: The transport behavior of polymyxin B and tobramycin in the Calu-3 cell monolayer were also evaluated in the presence of 8 mg/mL of sodium maleate, an agent known to inhibit megalin receptors via shedding of the megalin protein [23]. Calu-3 cell monolayer in trans-well inserts was formed following our previously published ALI culture protocol. Cell monolayers were pre-incubated with 8 mg/mL of sodium maleate for 4 h and were subsequently incubated with polymyxin B and tobramycin for 2 h. Samples were collected from the apical and basal chambers of the ALI culture system, analyzed using an LC-MS/MS system, and the drug content was calculated. The cell monolayer was then lysed with lysis buffer (RIPA buffer, Catalogue 89900, Thermofisher Scientific, Waltham, MA, USA) and cellular drug content was measured. Cell lysate (25 µL) from each sample was used for protein measurement. The amount of drug accumulated in the cell was normalized according to the amount of protein present in the samples. Polymyxin B and tobramycin concentrations in the samples, in the presence and absence of the megalin inhibitor sodium maleate, were plotted and statistical significance was calculated using Graph Pad Prism (version 9).

Calu-3 cells = test: Cellular uptake of polymyxin B by confocal microscopy (anti-polymyxin B antibody, Alexa 647); assay type: cell-based, human; conditions: 4 h
Description: Polymyxin B distribution in the Calu-3 cell monolayer was investigated using confocal laser scanning microscopy (CLSM). At the end of the transport process, the Calu-3 cell monolayer was prepared for imaging. The cell monolayer was washed with phosphate-buffered saline after treatment and fixed with 4% paraformaldehyde for 15 min. The cell monolayer was then permeabilized with 0.1% triton X-100 for 10 min and blocked with 3% goat serum in 0.1% triton X-100 for 2 h. To stain intracellular polymyxin B, the cell monolayer was then incubated overnight with mouse anti-polymyxin B antibody at 4 °C in the dark. After overnight incubation, the cell monolayer was incubated with goat anti-mouse IgG conjugated with Alexa Flour™ 647 for 2 h at room temperature. The nuclei were stained with Hoechst 33342.
For the drug accumulation study, Calu-3 cells were cultured in a glass bottom 35 mm dish (Ashland, MA, USA) and were incubated with 30 mg/L polymyxin B in the absence and presence of 70 mg/L tobramycin for 4 h. […] For the drug accumulation study, the background subtracted integrated density of Alexa Flour 647 (for polymyxin B) was calculated and data were presented as mean polymyxin B intensity per cell. Cell numbers per imaging field were counted using the Hoechst 33342 intensity and ImageJ “cell counter” Macro (ImageJ version 2.9).

renal cortex = conditions: 400 mg/kg of sodium maleate administration, within 3 h after injection; cited from earlier work
[4] = combination (polymyxin B 30 mg/L + tobramycin 70 mg/L), p < 0.0001 vs alone
[5] = drug alone (polymyxin B 30 mg/L or tobramycin 70 mg/L), cell lysate RIPA
[6] = drug alone, without sodium maleate, Calu-3 ALI monolayer, LC-MS/MS
[7] = with sodium maleate 8 mg/mL (4 h pre-incubation), Calu-3 ALI monolayer, LC-MS/MS

T1 sequence (P98164 26-4655): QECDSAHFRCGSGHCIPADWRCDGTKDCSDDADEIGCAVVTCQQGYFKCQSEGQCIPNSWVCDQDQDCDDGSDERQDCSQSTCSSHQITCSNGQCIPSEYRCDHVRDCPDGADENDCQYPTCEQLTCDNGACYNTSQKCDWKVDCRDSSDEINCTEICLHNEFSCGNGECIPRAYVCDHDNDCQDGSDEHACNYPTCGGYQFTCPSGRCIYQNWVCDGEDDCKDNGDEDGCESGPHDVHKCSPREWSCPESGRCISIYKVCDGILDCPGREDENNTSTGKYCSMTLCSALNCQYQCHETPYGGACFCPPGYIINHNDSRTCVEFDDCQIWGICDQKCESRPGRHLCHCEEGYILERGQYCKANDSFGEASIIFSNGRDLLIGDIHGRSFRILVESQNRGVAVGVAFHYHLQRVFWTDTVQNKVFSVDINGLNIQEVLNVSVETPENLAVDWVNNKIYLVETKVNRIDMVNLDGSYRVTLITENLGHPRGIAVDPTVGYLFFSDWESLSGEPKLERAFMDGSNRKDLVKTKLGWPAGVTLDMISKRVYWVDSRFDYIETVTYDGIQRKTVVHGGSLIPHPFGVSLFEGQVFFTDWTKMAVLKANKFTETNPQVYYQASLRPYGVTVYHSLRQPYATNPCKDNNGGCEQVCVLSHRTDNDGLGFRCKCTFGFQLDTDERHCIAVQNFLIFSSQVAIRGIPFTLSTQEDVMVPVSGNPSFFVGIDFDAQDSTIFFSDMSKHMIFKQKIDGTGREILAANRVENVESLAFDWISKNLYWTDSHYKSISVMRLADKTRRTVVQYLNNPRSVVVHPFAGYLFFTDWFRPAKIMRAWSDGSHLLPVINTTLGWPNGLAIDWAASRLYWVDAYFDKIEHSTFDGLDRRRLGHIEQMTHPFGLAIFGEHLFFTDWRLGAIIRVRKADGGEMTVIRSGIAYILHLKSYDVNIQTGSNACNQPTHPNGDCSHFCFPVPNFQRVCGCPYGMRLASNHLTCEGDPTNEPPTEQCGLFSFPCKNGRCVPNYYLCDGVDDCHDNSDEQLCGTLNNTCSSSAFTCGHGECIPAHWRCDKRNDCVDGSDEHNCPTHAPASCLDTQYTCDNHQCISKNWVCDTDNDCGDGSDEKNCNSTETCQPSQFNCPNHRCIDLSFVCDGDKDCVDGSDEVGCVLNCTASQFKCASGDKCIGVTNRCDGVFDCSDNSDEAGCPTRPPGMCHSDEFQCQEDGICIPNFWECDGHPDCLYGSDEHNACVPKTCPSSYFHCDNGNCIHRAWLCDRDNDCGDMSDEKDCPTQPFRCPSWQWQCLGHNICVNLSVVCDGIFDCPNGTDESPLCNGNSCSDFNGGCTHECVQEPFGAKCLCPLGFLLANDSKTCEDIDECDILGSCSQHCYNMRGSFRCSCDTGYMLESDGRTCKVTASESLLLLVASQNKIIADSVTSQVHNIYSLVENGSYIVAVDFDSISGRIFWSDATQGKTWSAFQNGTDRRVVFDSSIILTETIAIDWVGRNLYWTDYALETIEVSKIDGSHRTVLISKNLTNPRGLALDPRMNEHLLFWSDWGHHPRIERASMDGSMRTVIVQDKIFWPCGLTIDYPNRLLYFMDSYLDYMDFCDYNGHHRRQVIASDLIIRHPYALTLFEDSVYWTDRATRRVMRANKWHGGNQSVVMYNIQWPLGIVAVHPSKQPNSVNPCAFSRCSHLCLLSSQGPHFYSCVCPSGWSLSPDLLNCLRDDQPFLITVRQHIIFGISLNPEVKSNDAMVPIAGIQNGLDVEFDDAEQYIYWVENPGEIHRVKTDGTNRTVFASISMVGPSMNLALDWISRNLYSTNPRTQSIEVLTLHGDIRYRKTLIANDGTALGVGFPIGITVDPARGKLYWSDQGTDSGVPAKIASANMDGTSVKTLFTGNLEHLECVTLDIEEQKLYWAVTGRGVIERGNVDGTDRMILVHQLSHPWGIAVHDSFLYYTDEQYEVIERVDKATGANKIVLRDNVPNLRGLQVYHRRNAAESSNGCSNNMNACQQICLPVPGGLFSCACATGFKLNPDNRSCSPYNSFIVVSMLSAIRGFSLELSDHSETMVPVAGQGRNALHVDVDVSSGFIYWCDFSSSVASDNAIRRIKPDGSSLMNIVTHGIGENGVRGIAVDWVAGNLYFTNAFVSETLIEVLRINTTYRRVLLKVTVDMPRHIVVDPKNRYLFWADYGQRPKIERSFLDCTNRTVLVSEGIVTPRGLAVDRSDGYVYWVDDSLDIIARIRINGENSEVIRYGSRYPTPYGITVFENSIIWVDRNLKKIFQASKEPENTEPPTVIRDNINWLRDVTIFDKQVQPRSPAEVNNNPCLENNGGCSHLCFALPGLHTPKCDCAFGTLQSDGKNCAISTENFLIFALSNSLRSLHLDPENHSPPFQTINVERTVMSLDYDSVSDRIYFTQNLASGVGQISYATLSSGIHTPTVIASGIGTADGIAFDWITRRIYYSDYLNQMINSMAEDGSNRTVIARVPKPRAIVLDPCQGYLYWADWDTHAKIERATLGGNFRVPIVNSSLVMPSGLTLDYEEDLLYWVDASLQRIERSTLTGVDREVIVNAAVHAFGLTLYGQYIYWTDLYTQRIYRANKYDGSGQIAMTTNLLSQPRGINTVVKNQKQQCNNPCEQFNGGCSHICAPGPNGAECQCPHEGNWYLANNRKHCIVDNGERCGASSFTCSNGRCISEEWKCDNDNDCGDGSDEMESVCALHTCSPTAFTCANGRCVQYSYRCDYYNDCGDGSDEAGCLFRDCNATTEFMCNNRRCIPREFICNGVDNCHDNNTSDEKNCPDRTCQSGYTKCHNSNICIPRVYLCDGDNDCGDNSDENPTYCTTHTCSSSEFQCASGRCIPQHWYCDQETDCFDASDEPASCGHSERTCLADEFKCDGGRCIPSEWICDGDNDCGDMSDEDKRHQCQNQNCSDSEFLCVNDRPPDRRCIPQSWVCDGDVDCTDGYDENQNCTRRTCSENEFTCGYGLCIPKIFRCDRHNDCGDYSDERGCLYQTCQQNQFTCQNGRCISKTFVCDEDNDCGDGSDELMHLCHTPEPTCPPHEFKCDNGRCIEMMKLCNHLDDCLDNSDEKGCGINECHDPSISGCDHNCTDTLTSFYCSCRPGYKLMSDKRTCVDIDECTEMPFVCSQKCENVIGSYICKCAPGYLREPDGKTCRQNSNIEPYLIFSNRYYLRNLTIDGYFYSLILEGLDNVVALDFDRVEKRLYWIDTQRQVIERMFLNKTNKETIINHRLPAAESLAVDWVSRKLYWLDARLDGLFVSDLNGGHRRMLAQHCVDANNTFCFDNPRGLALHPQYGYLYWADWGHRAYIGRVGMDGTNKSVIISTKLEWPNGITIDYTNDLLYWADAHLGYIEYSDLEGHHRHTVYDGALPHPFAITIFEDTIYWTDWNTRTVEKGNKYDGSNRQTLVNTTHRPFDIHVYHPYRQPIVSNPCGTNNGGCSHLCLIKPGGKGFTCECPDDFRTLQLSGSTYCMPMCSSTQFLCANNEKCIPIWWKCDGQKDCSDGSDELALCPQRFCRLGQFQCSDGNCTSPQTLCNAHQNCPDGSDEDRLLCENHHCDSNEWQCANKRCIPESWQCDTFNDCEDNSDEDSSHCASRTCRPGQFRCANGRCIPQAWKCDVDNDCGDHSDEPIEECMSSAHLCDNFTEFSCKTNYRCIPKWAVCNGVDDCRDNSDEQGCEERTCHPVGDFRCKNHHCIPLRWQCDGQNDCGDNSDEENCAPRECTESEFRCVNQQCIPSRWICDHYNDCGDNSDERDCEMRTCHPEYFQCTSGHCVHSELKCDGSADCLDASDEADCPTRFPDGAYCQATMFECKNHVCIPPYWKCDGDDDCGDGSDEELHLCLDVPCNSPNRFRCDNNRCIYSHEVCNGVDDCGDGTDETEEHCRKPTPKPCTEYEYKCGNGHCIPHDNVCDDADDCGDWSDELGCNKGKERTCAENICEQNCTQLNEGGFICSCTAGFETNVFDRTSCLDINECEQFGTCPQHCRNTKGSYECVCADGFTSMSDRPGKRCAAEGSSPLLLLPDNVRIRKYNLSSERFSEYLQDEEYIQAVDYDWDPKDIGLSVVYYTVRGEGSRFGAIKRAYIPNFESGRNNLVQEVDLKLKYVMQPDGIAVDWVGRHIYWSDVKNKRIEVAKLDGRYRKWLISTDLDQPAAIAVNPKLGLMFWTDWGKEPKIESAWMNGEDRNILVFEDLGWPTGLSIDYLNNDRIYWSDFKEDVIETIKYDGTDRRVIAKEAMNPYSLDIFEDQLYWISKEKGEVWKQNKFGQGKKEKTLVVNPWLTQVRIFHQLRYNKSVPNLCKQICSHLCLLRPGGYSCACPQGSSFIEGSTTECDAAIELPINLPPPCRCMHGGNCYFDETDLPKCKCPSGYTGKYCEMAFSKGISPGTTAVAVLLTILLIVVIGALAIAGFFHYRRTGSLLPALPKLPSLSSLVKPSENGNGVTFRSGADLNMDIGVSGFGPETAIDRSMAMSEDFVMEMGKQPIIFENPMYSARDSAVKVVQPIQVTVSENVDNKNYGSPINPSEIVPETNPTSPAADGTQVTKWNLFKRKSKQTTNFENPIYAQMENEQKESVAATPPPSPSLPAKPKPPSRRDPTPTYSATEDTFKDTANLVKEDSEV

- ratio of FITC-BSA to nucleus integrated density (megalin; 70 mg/L tobramycin): 0.41 ± 0.02
- ratio of FITC-BSA to nucleus integrated density (megalin; 140 mg/L tobramycin): 0.30 ± 0.02
- transport rate, apparent permeability coefficient (Papp), in combination compared to drug alone (Calu-3 cell monolayer [2]): decreased significantly
- amount remaining in the apical chamber, combination compared to drug alone (Calu-3 cell monolayer [2]): Significantly higher amounts
- accumulation in Calu-3 cell monolayer (Calu-3 cell monolayer [2]; [4]): 3.8 ± 0.8%
- accumulation in Calu-3 cell monolayer (Calu-3 cell monolayer [2]; [5]): 13.2 ± 4.3%
- transported from the apical chamber to the basal chamber (Calu-3 cell monolayer [3]): 11.9 ± 1.3%
SMILES: NC[C@H]1O[C@H](O[C@H]2[C@H](O)[C@@H](O[C@H]3O[C@H](CO)[C@@H](O)[C@H](N)[C@H]3O)[C@H](N)C[C@@H]2N)[C@H](N)C[C@@H]1O [tobramycin]
- effect on cellular uptake of FITC-BSA (megalin): prevented the cellular uptake of FITC-BSA in a concentration-dependent manner
- reduction in viability of Calu-3 cells compared to the control [1]: did not result in any reduction in the viability

SMILES: CC[C@H](C)CCCCC(=O)N[C@@H](CCN)C(=O)N[C@H](C(=O)N[C@@H](CCN)C(=O)N[C@H]1CCNC(=O)[C@H]([C@@H](C)O)NC(=O)[C@H](CCN)NC(=O)[C@H](CCN)NC(=O)[C@H](CC(C)C)NC(=O)[C@@H](Cc2ccccc2)NC(=O)[C@H](CCN)NC1=O)[C@@H](C)O [polymyxin B, Polymyxin B] (X1-[Dab]T[Dab][Dab][Dab][dF]L[Dab][Dab]T; lactam 4-C)
- ratio of FITC-BSA to nucleus integrated density (megalin; 30 mg/L polymyxin B): 0.36 ± 0.03
- ratio of FITC-BSA to nucleus integrated density (megalin; 60 mg/L polymyxin B): 0.29 ± 0.02
- effect on cellular uptake of FITC-BSA (megalin): prevented the cellular uptake of FITC-BSA in a concentration-dependent manner
- safety of concentrations chosen for the transport study ([1]; 30 mg/L polymyxin B alone, 70 mg/L tobramycin alone, and their combination, based on cell viability data): safe
- cell death compared to the control ([1]; at 300 mg/L, LDH assay): significant cell death
- PI intensity ([1]; polymyxin B 300 mg/L treated Calu-3 cells, mean ± SD (n = 3), p < 0.001 vs control): 4334.0 ± 1131.6
- transport rate, apparent permeability coefficient (Papp), in combination compared to drug alone (Calu-3 cell monolayer [2]): decreased significantly
- amount remaining in the apical chamber, combination compared to drug alone (Calu-3 cell monolayer [2]): Significantly higher amounts
- transport from apical chamber to basal medium (Calu-3 cell monolayer [2]; [4]): 3.9 ± 0.3%
- accumulation in Calu-3 cell monolayer (Calu-3 cell monolayer [2]; [4]): 6.4 ± 0.1%
- accumulation in Calu-3 cell monolayer (Calu-3 cell monolayer [2]; [5]): 21.4 ± 2.0%
- transport from apical chamber to basal medium (Calu-3 cell monolayer [2]; drug alone (polymyxin B 30 mg/L), 30 min equilibration): 7.1 ± 0.4%
- cellular accumulation (Calu-3 cell monolayer [3]; [6]): 26.5 ± 2.1%
- remaining in the apical chamber (Calu-3 cell monolayer [3]; [6]): 59.9 ± 1.2%
- transported from the apical chamber to the basal chamber (Calu-3 cell monolayer [3]; drug alone, without sodium maleate, Calu-3 ALI monolayer, 2 h incubation, LC-MS/MS): 13.5 ± 1.6%
- transported from the apical chamber to the basal chamber (Calu-3 cell monolayer [3]; in the presence of sodium maleate 8 mg/mL (4 h pre-incubation), Calu-3 ALI monolayer, 2 h incubation, LC-MS/MS): 8.2 ± 0.9%
- cellular accumulation (Calu-3 cell monolayer [3]; [7]): 8.1 ± 0.4%
- remaining in the apical chamber (Calu-3 cell monolayer [3]; [7]): 83.7 ± 1.3%
- intracellular accumulation normalized to protein (Calu-3 cell monolayer [3]; with sodium maleate 8 mg/mL (4 h pre-incubation), LC-MS/MS): 1.9 ± 0.04 ng/µg of protein
- intracellular accumulation normalized to protein (Calu-3 cell monolayer [3]; without sodium maleate, LC-MS/MS): 6.0 ± 0.8 ng/µg of protein
- polymyxin B intensity per cell (Calu-3 cells; combination polymyxin B 30 mg/L + tobramycin 70 mg/L, mean ± SD, p < 0.001 vs polymyxin B alone): 932.3 ± 136.0
- polymyxin B intensity per cell (Calu-3 cells; polymyxin B 30 mg/L alone, Alexa 647, mean ± SD, saline control 113.0 ± 13.6): 2259.3 ± 309.4

SMILES: O=C([O-])/C=C\C(=O)[O-].[Na+].[Na+] [sodium maleate]
- decrease of renal cortex accumulation of amikacin (renal cortex): 50%
